Active and inactive are the calls of the source. No cut-off for these calls is given here.
Each molecule was assayed against T1, Enoyl-acyl-carrier protein reductase (Plasmodium falciparum) (UniProt Q965D5) (assay: Inhibition of Plasmodium falciparum FabI at 100 uM).
T1 sequence (whole entry): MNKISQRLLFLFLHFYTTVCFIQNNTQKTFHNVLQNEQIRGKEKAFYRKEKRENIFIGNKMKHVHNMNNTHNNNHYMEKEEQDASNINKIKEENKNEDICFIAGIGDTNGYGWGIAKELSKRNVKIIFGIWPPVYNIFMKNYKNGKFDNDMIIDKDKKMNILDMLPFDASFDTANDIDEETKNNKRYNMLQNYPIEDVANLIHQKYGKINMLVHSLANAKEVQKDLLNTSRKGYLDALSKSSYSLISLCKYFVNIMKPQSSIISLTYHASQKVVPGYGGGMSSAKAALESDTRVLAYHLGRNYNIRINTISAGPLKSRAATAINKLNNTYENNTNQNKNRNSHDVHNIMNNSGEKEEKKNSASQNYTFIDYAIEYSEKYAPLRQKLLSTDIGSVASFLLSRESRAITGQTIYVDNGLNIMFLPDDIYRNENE

Row | inhibition | Structure (SMILES)
1 | inactive | COc1cc2c(c(O)c1OC)C(=O)C[C@@H](c1ccc(O)cc1)O2
2 | inactive | O=c1cc(-c2ccccc2)oc2ccc(O)cc12
3 | inactive | COc1ccc(-c2cc(=O)c3c(O)c(O)c(OC)cc3o2)cc1

Source: ChEMBL document CHEMBL1208779, “Integrated ligand and structure based studies of flavonoids as fatty acid biosynthesis inhibitors of Plasmodium falciparum” (Bioorg Med Chem Lett, 2010)
